One may read the EC50 as the concentration that produces a half-maximal response.

Calls of active or inactive are those of the source. The rule behind the calls is not given here.

Fold increase in Dox EC50 and EC50 data for 62 compounds are collected here from PubChem BioAssay AID844 (SRMLSC, 2007).

This assay has as its system MRP1 cells, doxorubicin viability shift, 10 uM compound. Briefly: doxorubicin EC50 increase in MRP-1 cells, dose response, cell-based, doxorubicin EC50 shift (AID 844). The note with it: for EC50: measured here: doxorubicin EC50 with compound.

With `O=C(N/N=C/c1ccc(-c2ccc([N+](=O)[O-])cc2)o1)C(O)c1ccccc1` (centres undefined), the fold increase in Dox EC50 was 0.74 (inactive) and the EC50 turned out to be 3.97 µM.

Take `CNC(=S)Nc1ccc(C23CC4CC(CC(C4)C2)C3)cc1`: the fold increase in Dox EC50 was 0.7 (inactive) and the EC50 worked out at 3.78 µM.

As for `O=C1NC(=Nc2ccc(Cl)cc2)SC1Cc1cccc(Cl)c1Cl` (centres undefined), the fold increase in Dox EC50 is 1.19 (inactive) and the EC50 is 6.41 µM.

In the case of `Cc1ccc(-c2cc(C(F)F)nc(NCc3cccnc3)n2)cc1`, the fold increase in Dox EC50 is 0.52 (inactive) and the EC50 came out at 2.81 µM.

For `COc1ccc(OCc2nc3ccc(S(=O)(=O)Nc4ccccc4Cl)cc3[nH]2)cc1`, the fold increase in Dox EC50 is 0.96 (inactive) and the concentration for a half-maximal effect (EC50) came out at 5.16 µM.

On to `O=C(NNC1=C(C(=O)C(F)(F)F)CCC1)c1cccc(Cl)c1`, for which the fold increase in Dox EC50 was 1.03 (inactive) and the EC50 is 5.54 µM.

As for `CCCCc1ccc(-c2nc(-c3ccncc3)no2)cc1`, the fold increase in Dox EC50 is 0.76 (inactive) and the concentration giving a half-maximal response (EC50) came to 4.09 µM.

Take `Clc1ccc(Cc2nnc(-c3ccccc3Br)o2)cc1`: the fold increase in Dox EC50 was 1.14 (inactive) and the concentration for a half-maximal effect (EC50) was 6.15 µM.

For `CCSC(C)CC1C/C(=N/O)c2c(CC)noc2C1` (centres undefined), the fold increase in Dox EC50 was 1.27 (inactive) and the concentration for a half-maximal effect (EC50) is 6.85 µM.

On to `Cc1cc(C)c(S(C)(=O)=O)c(Sc2ccc(Cl)cc2)n1`, for which the fold increase in Dox EC50 is 0.81 (inactive) and the EC50 was 4.38 µM.

In the case of `O=c1cc(CN2CCN(c3cccc(Cl)c3)CC2)c2cc3c(cc2o1)CCCC3`, the fold increase in Dox EC50 is 0.74 (inactive) and the EC50 came out at 3.98 µM.

For the compound `COc1cc(C)ccc1N(CCCN1C(=O)c2cccc3cccc(c23)C1=O)C(=O)c1cccs1`, the fold increase in Dox EC50 was 1.13 (inactive) and the 50% effective concentration (EC50) is 6.12 µM.

`Fc1ccc(N2CCN(c3ncnc4c3nnn4Cc3ccccc3Cl)CC2)cc1`: the fold increase in Dox EC50 is 0.86 (inactive) and the EC50 was 4.67 µM.

Turning to `S=C(c1ccc(-c2ccccc2Cl)o1)N1CCCCC1`, the fold increase in Dox EC50 is 0.85 (inactive) and the concentration giving a half-maximal response (EC50) was 4.59 µM.

Regarding `COc1ccccc1NC(=O)CSC(N)=O`, the fold increase in Dox EC50 is 0.81 (inactive) and the EC50 was determined as 4.4 µM.

With `Cc1ccc(N/N=C(\C#N)C(N)=S)c(C)c1`, the fold increase in Dox EC50 was 0.6 (inactive) and the EC50 came out at 3.25 µM.

As for `Cc1ccc(C(C)C)c(OCc2nc(-c3nonc3N)no2)c1`, the fold increase in Dox EC50 is 1.51 and the concentration giving a half-maximal response (EC50) came to 8.18 µM.

For the compound `COc1ccccc1C1CC(c2ccc(Cl)cc2Cl)Nc2nc(N)nn21` (centres undefined), the fold increase in Dox EC50 was 0.95 (inactive) and the EC50 worked out at 5.11 µM.

Regarding `O=C(NCc1ccc(F)cc1)C(=O)NCC1OCCN1C(=O)c1cccs1` (centres undefined), the fold increase in Dox EC50 is 1.24 (inactive) and the EC50 amounted to 6.68 µM.

With `S=C(N/N=C/c1ccc(Cl)cc1)N1CCOCC1`, the fold increase in Dox EC50 is 1.22 (inactive) and the 50% effective concentration (EC50) stood at 6.57 µM.

For `COc1cccc(/C=N/NC(=O)C(C)n2nc(C)c([N+](=O)[O-])c2C)c1O` (centres undefined), the fold increase in Dox EC50 was 0.33 (inactive) and the half-maximal effective concentration (EC50) turned out to be 1.77 µM.

Consider `O=C1CC(N2CCC(O)(c3ccc(Br)cc3)CC2)C(=O)N1c1ccc(Cl)cc1` (centres undefined), for which the fold increase in Dox EC50 was 1.37 (inactive) and the half-maximal effective concentration (EC50) turned out to be 7.39 µM.

On to `Cc1ccc(-c2noc(C3CCCN(S(=O)(=O)c4ccc5ccccc5c4)C3)n2)o1` (centres undefined), for which the fold increase in Dox EC50 is 1.58 and the 50% effective concentration (EC50) was found to be 8.55 µM.

As for `O=C1c2cccc3cccc(c23)C(=O)N1CCN1CCN(CC(O)COc2ccccc2)CC1` (centres undefined), the fold increase in Dox EC50 is 0.32 (inactive) and the EC50 was found to be 1.71 µM.

Regarding `O=C(Nc1cccc(Cl)c1)c1c(O)c2c(n(Cc3ccccc3)c1=O)CCCC2`, the fold increase in Dox EC50 was 1.14 (inactive) and the EC50 was 6.17 µM.

In the case of `COC(=O)c1cn(NC(=O)c2cccnc2)c(=O)c2ccccc12`, the fold increase in Dox EC50 is 0.52 (inactive) and the EC50 was determined as 2.79 µM.

Consider `CCn1c(COc2ccc(Cl)cc2)nnc1SC1CCc2ccccc2C1=O` (centres undefined), for which the fold increase in Dox EC50 is 0.71 (inactive) and the EC50 is 3.81 µM.

Take `Cc1nc(NC(=S)NC(=O)c2ccccc2)sc1C(=O)N(C)C`: the fold increase in Dox EC50 is 1.24 (inactive) and the EC50 was 6.71 µM.

As to `Cc1cccc(NC(=O)Cn2c(=O)n(Cc3ccco3)c(=N)c3c4c(sc32)COC(C)(C)C4)c1`, the fold increase in Dox EC50 was 0.81 (inactive) and the concentration giving a half-maximal response (EC50) is 4.37 µM.

On to `Cc1cc2n(n1)C(c1ccccc1)CC(c1ccc(Br)cc1)=N2` (centres undefined), for which the fold increase in Dox EC50 is 0.76 (inactive) and the EC50 came to 4.12 µM.

Consider `C=CCOc1ccc(CNc2ccc(NC(=O)CC(C)C)cc2)cc1OC`, for which the fold increase in Dox EC50 was 0.82 (inactive) and the 50% effective concentration (EC50) stood at 4.43 µM.

As for `O=C(Nc1ccn(Cc2ccccc2F)n1)c1ccc(COc2cc(Cl)ccc2Cl)o1`, the fold increase in Dox EC50 is 0.91 (inactive) and the half-maximal effective concentration (EC50) worked out at 4.94 µM.

Regarding `O=C(NCc1ccc(Cl)cc1)C(=O)NCC1OCCN1C(=O)c1cccs1` (centres undefined), the fold increase in Dox EC50 is 1.33 (inactive) and the EC50 stood at 7.17 µM.

Regarding `Cc1ccc(C(c2sc3ncnn3c2O)N2CCC(C)CC2)cc1` (centres undefined), the fold increase in Dox EC50 is 0.72 (inactive) and the EC50 was 3.87 µM.

For `COc1ccc(CNc2nc(NCc3ccc(OC)cc3)n(C(=O)c3ccccc3[N+](=O)[O-])n2)cc1`, the fold increase in Dox EC50 is 0.72 (inactive) and the half-maximal effective concentration (EC50) turned out to be 3.9 µM.

Take `C=CCn1c(CNc2ccccc2)nnc1SCC(=O)N/N=C/c1ccccc1O`: the fold increase in Dox EC50 is 0.58 (inactive) and the EC50 is 3.11 µM.

In the case of `Cc1nc(NC(=S)NC(=O)c2cccs2)sc1C(=O)N(C)C`, the fold increase in Dox EC50 is 1.04 (inactive) and the concentration for a half-maximal effect (EC50) worked out at 5.59 µM.

For the compound `COc1cccc(C2C(C(=O)Nc3nc4ccccc4s3)=C(C)NC3=C2C(=O)CC(C)(C)C3)c1OC` (centres undefined), the fold increase in Dox EC50 is 0.3 (inactive) and the concentration giving a half-maximal response (EC50) came out at 1.6 µM.

As for `Cc1ccc(CC2S/C(=C(/C#N)C(=O)N3CCOCC3)N(c3ccccc3)C2=O)cc1` (centres undefined), the fold increase in Dox EC50 was 1.18 (inactive) and the EC50 worked out at 6.38 µM.

For the compound `CC1CCC/C(=C(\C#N)c2nc(-c3cc4ccccc4oc3=O)cs2)C1` (centres undefined), the fold increase in Dox EC50 is 0.55 (inactive) and the EC50 was determined as 2.96 µM.

In the case of `COc1ccc(C2=NN(C(=O)c3cccs3)C(c3ccc(OC)cc3)C2)cc1` (centres undefined), the fold increase in Dox EC50 was 1.06 (inactive) and the EC50 worked out at 5.7 µM.

In the case of `COc1ccc(NC(=O)C(=O)N/N=C/c2cc(C)n(-c3cccc(Cl)c3Cl)c2C)c(OC)c1`, the fold increase in Dox EC50 is 1.43 (inactive) and the concentration for a half-maximal effect (EC50) is 7.74 µM.

Turning to `CCOC(=O)c1ccccc1NC(=O)C1COc2ccccc2O1` (centres undefined), the fold increase in Dox EC50 was 0.42 (inactive) and the EC50 came out at 2.28 µM.

With `C=CCOC(=O)C(C#N)c1nc2ccccc2nc1N1CCN(c2ccccc2OCC)CC1` (centres undefined), the fold increase in Dox EC50 was 0.56 (inactive) and the EC50 was found to be 3.05 µM.

In the case of `O=C(c1ccc(COc2ccc(Br)cc2)o1)N1N=C(C(F)F)CC1(O)C(F)F` (centres undefined), the fold increase in Dox EC50 was 1.06 (inactive) and the concentration for a half-maximal effect (EC50) came to 5.71 µM.

`CCCn1c(C)cc(/C=C(\C#N)C(=O)OCC(=O)Nc2ccc(OC)c(Cl)c2)c1C`: the fold increase in Dox EC50 was 0.7 (inactive) and the EC50 was determined as 3.81 µM.

In the case of `O=C(c1cnn2c(C(F)(F)F)cc(-c3cccs3)nc12)N1CCN(C(c2ccccc2)c2ccccc2)CC1`, the fold increase in Dox EC50 was 0.17 (inactive) and the EC50 stood at 0.916 µM.

Take `COc1ccc(OCc2nc(C#N)c(N3CCN(c4ccc(OC)cc4)CC3)o2)cc1`: the fold increase in Dox EC50 was 0.76 (inactive) and the concentration for a half-maximal effect (EC50) came to 4.08 µM.

For the compound `O=C(CSCc1ccc(Cl)cc1)NCC1CCCO1` (centres undefined), the fold increase in Dox EC50 is 1.1 (inactive) and the EC50 turned out to be 5.96 µM.

`CCOC(=O)c1c(-c2ccc(F)cc2)csc1NC(=O)c1c(-c2ccccc2)noc1C`: the fold increase in Dox EC50 is 0.56 (inactive) and the EC50 came to 3 µM.

For `Cc1nnc(NC(=O)c2ccco2)s1`, the fold increase in Dox EC50 is 1.16 (inactive) and the concentration giving a half-maximal response (EC50) amounted to 6.28 µM.

In the case of `CC(/C=N\NC(=O)CN1CCN(S(=O)(=O)c2ccc(C)cc2)CC1)=C\c1ccccc1`, the fold increase in Dox EC50 is 1.26 (inactive) and the EC50 is 6.79 µM.

As for `O=C(/C=C/NNC(=O)c1ccccc1)c1ccc(Br)cc1`, the fold increase in Dox EC50 is 0.53 (inactive) and the EC50 stood at 2.86 µM.

For `CN1/C(=C\C(=O)c2oc3ccccc3c2N)C(C)(C)c2ccccc21`, the fold increase in Dox EC50 was 0.7 (inactive) and the EC50 came out at 3.77 µM.

In the case of `COC1(OC)C(=N/O)/C(=N\O)CCC1O` (centres undefined), the fold increase in Dox EC50 was 0.77 (inactive) and the concentration giving a half-maximal response (EC50) came to 4.16 µM.

Turning to `O=C(Cn1c(=O)oc2cc(S(=O)(=O)N3CCCC3)ccc21)NCc1ccccn1`, the fold increase in Dox EC50 is 1.15 (inactive) and the concentration giving a half-maximal response (EC50) stood at 6.19 µM.

On to `Cc1nn(Cc2ccccc2)c(C)c1NC(=O)c1noc2c1CCc1ccccc1-2`, for which the fold increase in Dox EC50 is 0.95 (inactive) and the EC50 came out at 5.11 µM.

For the compound `O=C(NC(=S)Nc1ccccn1)c1cc(-c2ccccc2)nc2ccccc12`, the fold increase in Dox EC50 is 0.91 (inactive) and the concentration giving a half-maximal response (EC50) was 4.93 µM.

For `CC(Oc1ccc(Cl)cc1Cl)C(=O)NC1CCSC1=O` (centres undefined), the fold increase in Dox EC50 was 1.98 and the concentration giving a half-maximal response (EC50) came out at 10.7 µM.

As for `CCC(Sc1nc(-c2ccccc2)c(C#N)c(=O)[nH]1)C(=O)Nc1nnc(C)s1` (centres undefined), the fold increase in Dox EC50 is 1.82 and the concentration for a half-maximal effect (EC50) worked out at 9.85 µM.

In the case of `Cc1cc(C)nc(NS(=O)(=O)c2ccc(NC(=O)c3ccc4c(c3)OCO4)cc2)n1`, the fold increase in Dox EC50 was 0.94 (inactive) and the 50% effective concentration (EC50) came to 5.05 µM.

For `COc1ccc(N2Cc3cccc(C(=O)NC(C)CCc4ccco4)c3C2=O)cc1` (centres undefined), the fold increase in Dox EC50 was 0.37 (inactive) and the 50% effective concentration (EC50) came to 2.02 µM.
